From patent publication US20260078108A1, “SOLID FORMS OF A ROCK INHIBITOR” (REDX PHARMA PLC, priority 2022, published 2026)
In brackets after ≈: the same amount, converted by molar mass. Counter-ions that a name gives are not always drawn.

What was measured:
[1] = 7-day stability testing of solid forms (HPLC purity, XRPD); format: physicochemical
Method: About 10 mg of freebase Form I, HCl salt Form II, Succinate Form I and received HCl salt Form I were placed at 60° C./capped and 40° C./75% RH (open), respectively. Samples were prepared in duplicate for each condition. At day 0 and day 7, the samples were analyzed by HPLC and XRPD to check the purity and crystal form, respectively.

[2] = Solubility testing in water, SGF, FaSSIF, FeSSIF at 37° C.; format: physicochemical; conditions: for Solubility / Solubility (mg/mL): 37° C.
Method: About 15 mg of sample was weighed into each sample vial and then 3.0 mL of water, simulated gastric fluid (SGF), Fasted State Simulated Intestinal Fluid (FaSSIF) or Fed State Simulated Intestinal Fluid (FeSSIF) media was added. Samples were prepared in triplicate for each media. The suspensions were kept shaking at 37° C. for up to 24 h. At 0.5, 2 and 24 h, suspensions were filtered and the filtrate was analyzed by HPLC.

[3] = Day 7, 40° C./75% RH (open), HPLC
[4] = FaSSIF (pH of media 6.5), 0.5 h
[5] = FeSSIF (pH of media 5.0), 0.5 h
[6] = pH of sample in FaSSIF (pH of media 6.5), 0.5 h
[7] = pH of sample in FaSSIF (pH of media 6.5), 2 h
[8] = pH of sample in FaSSIF (pH of media 6.5), 24 h
[9] = pH of sample in FeSSIF (pH of media 5.0), 0.5 h
[10] = pH of sample in FeSSIF (pH of media 5.0), 2 h
[11] = pH of sample in FeSSIF (pH of media 5.0), 24 h
[12] = pH of sample in SGF (pH of media 1.2), 0.5 h
[13] = pH of sample in SGF (pH of media 1.2), 2 h
[14] = pH of sample in SGF (pH of media 1.2), 24 h
[15] = pH of sample in Water (pH of media 7.9), 0.5 h
[16] = pH of sample in Water (pH of media 7.9), 2 h
[17] = pH of sample in Water (pH of media 7.9), 24 h

SMILES | XRPD (crystal form) ([1]; Day 7, 40° C./75% RH (open)) | XRPD (crystal form) ([1]; Day 7, 60° C./capped) | Solubility [2, 4] [mg/mL] | Solubility ([2]; FaSSIF (pH of media 6.5), 2 h) [mg/mL] | Solubility [2, 5] [mg/mL] | Solubility ([2]; FeSSIF (pH of media 5.0), 2 h) [mg/mL] | Solubility ([2]; FeSSIF (pH of media 5.0), 24 h) [mg/mL] | Solubility ([2]; SGF (pH of media 1.2), 0.5 h) [mg/mL] | Solubility ([2]; SGF (pH of media 1.2), 2 h) [mg/mL] | Solubility ([2]; SGF (pH of media 1.2), 24 h) [mg/mL] | pH [2, 6] | pH [2, 7] | pH [2, 8] | pH [2, 9] | pH [2, 10] | pH [2, 11] | pH [2, 12] | pH [2, 13] | pH [2, 14] | pH [2, 15] | also measured
NCc1ccc(C(=O)Nc2ccncc2F)cc1-c1cccc(C(=O)Nc2ccc(SC[C@H]3CCOC3=O)cc2)c1 [HCl salt Form I] | No change | No change |  |  |  |  |  |  |  |  |  |  |  |  |  |  |  |  |  |  | Purity (area %) ([1]; Day 0, HPLC, listed as HCI salt Form I): 97.62 area %; Purity (area %) ([1]; Day 7, 40° C./75% RH (open), HPLC, listed as HCI salt Form I): 97.62 area %; Purity (area %) ([1]; Day 7, 60° C./capped, HPLC, listed as HCI salt Form I): 97.61 area %
NCc1ccc(C(=O)Nc2ccncc2F)cc1-c1cccc(C(=O)Nc2ccc(SC[C@H]3CCOC3=O)cc2)c1 [Succinate Form I] | No change | No change | 0.005 | 0.002 | 0.188 | 0.173 | 0.046 | 3.837 | 3.826 | 4.005 | 5.7 | 5.7 | 5.6 | 4.8 | 4.8 | 4.8 | 1.3 | 1.4 | 1.3 | 4.3 | Purity (area %) ([1]; Day 0, HPLC): 97.46 area %; Decrease in purity versus Day 0 ([1]; Day 7, 40° C./75% RH (open)): 0.2 area %; Purity (area %) [1, 3]: 97.29 area %; Decrease in purity versus Day 0 ([1]; Day 7, 60° C./capped): 0.5 area %; Purity (area %) ([1]; Day 7, 60° C./capped, HPLC): 96.98 area %; Solubility ([2]; FaSSIF (pH of media 6.5), 24 h): 0.001 mg/mL; Solubility in SGF (in words) ([2]; SGF, comparison with HCl Salt Form 1): more soluble in SGF than HCl Salt Form 1; Solubility ([2]; Water (pH of media 7.9), 2 h): 0.328 mg/mL; Solubility ([2]; Water (pH of media 7.9), 24 h): 0.546 mg/mL; pH [2, 16]: 4.2; pH [2, 17]: 4.1; solubility at 0.5 h ([2]; water, 37 °C, pH 7.9, water, thermodynamic from solid, Water (pH of media 7.9), 0.5 h): 363 µg/mL
NCc1ccc(C(=O)Nc2ccncc2F)cc1-c1cccc(C(=O)Nc2ccc(SC[C@H]3CCOC3=O)cc2)c1 [Freebase Form I] | No change | No change | 0.014 (≈ 24.5 µM) | 0.006 (≈ 10.5 µM) | 0.183 (≈ 321 µM) | 0.126 (≈ 221 µM) | 0.059 (≈ 103 µM) | ~5 (≈ 8760 µM) | ~5 (≈ 8760 µM) | ~5 (≈ 8760 µM) | 6.4 | 6.4 | 6.5 | 5.0 | 5.0 | 5.0 | 1.2 | 1.4 | 1.4 | 7.9 | Purity (area %) ([1]; Day 0, HPLC): 96.89 area %; Decrease in purity versus Day 0 ([1]; Day 7, 40° C./75% RH (open)): 3.0 area %; Purity (area %) [1, 3]: 93.87 area %; Decrease in purity versus Day 0 ([1]; Day 7, 60° C./capped): 1.9 area %; Purity (area %) ([1]; Day 7, 60° C./capped, HPLC): 95.01 area %; Solubility ([2]; FaSSIF (pH of media 6.5), 24 h): 0.001 mg/mL (≈ 1.75 µM); Solubility (mg/mL) ([2]; Water (pH of media 7.9), 0.5 h): <LOD; Solubility (mg/mL) ([2]; Water (pH of media 7.9), 2 h): <LOD; Solubility (mg/mL) ([2]; Water (pH of media 7.9), 24 h): <LOD; pH [2, 16]: 7.6; pH [2, 17]: 8.7
NCc1ccc(C(=O)Nc2ccncc2F)cc1-c1cccc(C(=O)Nc2ccc(SC[C@H]3CCOC3=O)cc2)c1 (stereo in doubt) [HCl salt Form I] |  |  | 0.023 | 0.005 | 0.083 | 0.091 | 0.066 | 0.780 | 0.841 | 1.355 | 6.4 | 6.4 | 6.4 | 4.9 | 4.9 | 4.9 | 1.4 | 1.4 | 1.4 | 5.6 | Solubility (mg/mL) ([2]; FaSSIF (pH of media 6.5), 24 h): <LOD; Solubility ([2]; Water (pH of media 7.9), 0.5 h): 0.680 mg/mL; Solubility ([2]; Water (pH of media 7.9), 2 h): 0.771 mg/mL; Solubility ([2]; Water (pH of media 7.9), 24 h): 1.411 mg/mL; pH [2, 16]: 5.7; pH [2, 17]: 5.8
